ChEMBL document CHEMBL2074102, “Expression and functional characterization of rat organic anion transporter 3 (rOat3) in the choroid plexus” (Mol Pharmacol, 2002)
Blank lines part the entries; values can stand above or below the molecule they belong to.

Tests used:
Format in all cases: functional, cell-based
[1] = target: T1, Organic anion transporter 3 (Rattus norvegicus, UniProt Q9R1U7); assay: TP_TRANSPORTER: inhibition of PCG uptake in OAT3-expressing LLC-PK1 cells
T1 sequence (Q9R1U7 whole entry): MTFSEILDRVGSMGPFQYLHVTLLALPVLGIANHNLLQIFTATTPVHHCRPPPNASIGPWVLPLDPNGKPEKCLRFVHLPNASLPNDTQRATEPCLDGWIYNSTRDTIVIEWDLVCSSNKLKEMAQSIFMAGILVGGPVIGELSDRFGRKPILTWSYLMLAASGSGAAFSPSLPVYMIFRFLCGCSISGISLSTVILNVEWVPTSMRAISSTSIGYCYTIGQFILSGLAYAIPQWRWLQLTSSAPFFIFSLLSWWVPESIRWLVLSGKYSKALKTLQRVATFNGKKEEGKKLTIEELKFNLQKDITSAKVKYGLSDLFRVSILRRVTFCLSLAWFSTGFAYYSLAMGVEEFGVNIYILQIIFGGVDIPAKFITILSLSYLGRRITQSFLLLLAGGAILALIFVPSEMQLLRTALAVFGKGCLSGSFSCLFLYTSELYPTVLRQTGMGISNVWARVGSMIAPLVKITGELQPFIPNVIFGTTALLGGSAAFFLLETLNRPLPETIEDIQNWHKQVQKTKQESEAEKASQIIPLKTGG

[2] = target: T1, Organic anion transporter 3; assay: TP_TRANSPORTER: inhibition of PCG uptake in Oat3-expressing LLC-PK1 cells
[3] = target: T2, Solute carrier family 22 member 6 (Rattus norvegicus, UniProt O35956); assay: TP_TRANSPORTER: inhibition of PAH uptake in Oat1-expressing LLC-PK1 cells
T2 sequence (O35956 whole entry): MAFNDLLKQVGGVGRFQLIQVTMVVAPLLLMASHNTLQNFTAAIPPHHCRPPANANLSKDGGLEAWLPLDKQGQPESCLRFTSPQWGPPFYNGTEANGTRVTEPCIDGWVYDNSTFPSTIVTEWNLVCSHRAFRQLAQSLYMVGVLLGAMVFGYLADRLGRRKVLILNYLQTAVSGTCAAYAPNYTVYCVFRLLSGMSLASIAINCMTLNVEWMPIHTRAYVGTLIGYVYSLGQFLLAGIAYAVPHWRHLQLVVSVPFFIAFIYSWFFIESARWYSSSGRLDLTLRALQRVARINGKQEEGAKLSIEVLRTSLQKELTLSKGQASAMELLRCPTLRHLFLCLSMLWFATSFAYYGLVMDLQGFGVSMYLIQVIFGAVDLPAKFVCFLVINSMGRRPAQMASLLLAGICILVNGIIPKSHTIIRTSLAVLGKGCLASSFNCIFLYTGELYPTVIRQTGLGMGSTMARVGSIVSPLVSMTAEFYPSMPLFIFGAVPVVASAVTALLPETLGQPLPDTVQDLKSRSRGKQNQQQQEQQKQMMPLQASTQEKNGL

[4] = substrate: CC1(C)S[C@@H]2[C@H](NC(=O)Cc3ccccc3)C(=O)N2[C@H]1C(=O)O; assay: TP_TRANSPORTER: uptake in Oat3-expressing LLC-PK1 cells

- Ki [2]: 398 µM
Molecule: Nc1ccc(C(=O)NCC(=O)O)cc1 [AMINOHIPPURIC ACID]

- Ki [2]: 4.43 µM
Molecule: CCCN(CCC)S(=O)(=O)c1ccc(C(=O)O)cc1 [PROBENECID]

More lines, now with the values behind:

Molecule: C[C@]12CC[C@@H]3c4ccc(OS(=O)(=O)O)cc4CC[C@H]3[C@@H]1CCC2=O [ESTRONE SULFURIC ACID]
- Ki [1]: 9.1 µM

Molecule: CN/C(=N/CCSCc1nc[nH]c1C)NC#N [CIMETIDINE]
- Ki [1]: 46.8 µM
- Ki [3]: > 1000 µM

Molecule: C[C@]12CC[C@@H]3c4ccc(O)cc4CC[C@H]3[C@@H]1CC[C@@H]2O[C@@H]1O[C@H](C(=O)O)[C@@H](O)[C@H](O)[C@H]1O [ESTRADIOL 17B GLUCURONIDE]
- Ki [3]: > 300 µM
- Ki [2]: 35.6 µM

B1: Organic anion transporter 3 (Rattus norvegicus) (protein)
chain: T1 sequence (Q9R1U7 whole entry)
- Km [4]: 82.6 µM
